Results on 24 compounds are retold here after ChEMBL document CHEMBL1130304, “Hemisynthesis of rhazinilam analogues: structure - activity relationships on tubulin-microtubule system” (Bioorg Med Chem Lett, 1997).

SMILES strings stand for the structures. Several values for one entry are separate records, joined by “and”; a condition that tells them apart may be missing. Identical values can stand only once. Activity calls are given as the source filed them. The calls are words filed in the database; no cut-off is given here.

One may read the IC50 as the concentration needed to halve the response being measured.

Assay [1] is described as follows: Inhibitory concentration of compound was determined against KB cells. The assay is classed as functional, cell-based, Homo sapiens.
The nature of assay [2]: Relative activity against the cold-induced disassembly of microtubules with respect to rhazinilam (IC50=2*10e-6M). The format is functional.
Assay [3] in a line: Inhibitory concentration of compound was determined against KB cells; IA means Inactive. The assay is classed as functional, cell-based, Homo sapiens.
Assay [4] is described as follows: Compound was tested for relative activity against the cold-induced disassembly of microtubules with respect to rhazinilam (IC50=2*10e-6M); IA means Inactive. The format is functional.
The nature of assay [5]: Compound was tested for relative activity against the cold-induced disassembly of microtubules with respect to rhazinilam (IC50=2*10e-6M); Experimemt 2. The format is functional.
Assay [6] is described as follows: Compound was tested for relative activity against the cold-induced disassembly of microtubules with respect to rhazinilam (IC50=2*10e-6M); Experiment 1. The assay is classed as functional.
A short description of assay [7]: Compound was tested for relative activity against the cold-induced disassembly of microtubules; IA means Inactive. The assay is classed as functional.
Assay [8] in a line: Inhibitory concentration of compound was determined against disassembly of microtubules. The assay is classed as functional.
Assay [9] is described as follows: Compound was tested for relative activity against the cold-induced disassembly of microtubules. The format is functional.

For `CC[C@]12CCCn3ccc(c31)-c1ccccc1/N=C(/S)CC2`, in [1], it took 10 µM to reach half-maximal inhibition (IC50). Besides, the Ratio in assay [2] was 50.
The corresponding values for `CC[C@]12CCCn3ccc(c31)-c1ccccc1N(C)C(=O)CC2` are 60 µM and 4.
Consider `CC[C@]12CCCn3ccc(c31)-c1ccccc1N(CC(=O)OCc1ccccc1)C(=O)CC2`, for which the Ratio in [2] was 80. Also, the IC50 result in assay [3] is recorded as “Not Active”.
Turning to `CC[C@@]12CCCN3CC[C@@]4(C(=Nc5ccccc54)CC1)[C@H]32`, the Ratio entry in assay [4] is “inactive”.
Consider `CC[C@]12CCCn3c(C(=O)C(Cl)(Cl)Cl)cc(c31)-c1ccccc1NC(=O)CC2`, for which the half-inhibitory concentration (IC50) in assay [1] turned out to be 25 µM. The Ratio in [2] came to 8.
For `CC[C@]12CCCn3ccc(c31)-c1cc(NC(C)=O)ccc1NC(=O)CC2`, the IC50 result in assay [3] is listed as “Not Active”. Also, in assay [4], the Ratio result was “inactive”.
The compound `CC[C@@]12CCCN(C(=O)OC(C)(C)C)c3ccccc3-c3ccn(c31)CCC2` returned an IC50 in [1] of 10 µM. Also, the Ratio in [2] was found to be 80.
The like results for `CC[C@@]12CCC(=O)Nc3ccccc3-c3ccn(c31)C(O)CC2` (stereo not given in full) were, in that order, 3 µM and 15.
As for `CC[C@@]12CCCN(C(C)=O)c3ccccc3-c3ccn(c31)CCC2`, the Ratio in [2] amounted to 80. In [3], the IC50 result is “Not Active”.
In the case of `CC[C@]12CCCn3c(C(=O)OCc4ccc(OC)c(OC)c4OC)cc(c31)-c1ccccc1NC(=O)CC2`, 20 µM corresponded to half-maximal inhibition in assay [1] (IC50). Besides, the Ratio in [2] was determined as 7.
In assay [1], `CC[C@]12CCCn3c(C(=O)O)cc(c31)-c1ccccc1NC(=O)CC2` showed an IC50 of 75 µM. Moreover, the Ratio in [5] was 2 and 3; in assay [6], 5.
In turn, `CC[C@]12CCCn3c(C(=O)C(F)(F)F)cc(c31)-c1ccccc1NC(=O)CC2` came in with a concentration for half-maximal inhibition (IC50) in assay [1] of 15 µM. For the same compound, the Ratio in assay [2] turned out to be 4.
For the compound `CC[C@@]12CCCN3C(=O)C=C(c4ccccc4NC(=O)CC1)[C@]32O`, the Ratio entry in assay [4] is “inactive”.
The compound `CC[C@]12CCCn3c(C(=O)OC)cc(c31)-c1ccccc1NC(=O)CC2` showed an IC50 in [1] of 4 µM. Also, the Ratio in [2] worked out at 5.
The corresponding values for `CC[C@@]12CCC(=O)Nc3ccccc3-c3ccn(c31)C(=O)CC2` [RHAZINICINE] are 3 µM and 10.
With `CC[C@]12CCCn3c(C=O)cc(c31)-c1ccccc1NC(=O)CC2`, the Ratio in [2] is 6.
Regarding `CC[C@@]12CCCN3CC=C(c4ccccc4NC(=O)CC1)C32` (stereo not given in full), the Ratio result in assay [4] is “inactive”.
Compound `CC[C@@]12CCCNc3ccccc3-c3ccn(c31)CCC2` registered an IC50 in assay [1] of 1 µM. The Ratio in assay [2] is 20.
As for `CC[C@]12CCCn3ccc(c31)-c1cc(Br)ccc1NC(=O)CC2`, the Ratio in [2] is 100. In [3], the IC50 result is reported as “Not Active”.
As for `CC[C@]12CCCn3c(C=O)c(C=O)c(c31)-c1ccccc1NC(=O)CC2`, the Ratio entry in assay [4] was “inactive”.
With `CC[C@]1(CCC(=O)O)CCCn2ccc(-c3ccccc3N)c21`, the Ratio entry in assay [4] is “inactive”.
`CC[C@]12CCCn3ccc(c31)-c1ccccc1NC(=O)CC2` [RHAZINILAM]: the IC50 was determined as 0.5 µM in assay [1] and 2 µM in assay [8]. Moreover, the Ratio entry in assay [7] is “inactive”. For the same compound, the Ratio in assay [9] is 1.
On to `CC[C@]12CCCn3ccc(c31)-c1ccccc1N(CC(=O)O)C(=O)CC2`, for which the Ratio in [2] worked out at 80. For the same compound, the IC50 entry in assay [3] was “Not Active”.
The like results for `CC[C@]12CCCn3ccc(c31)-c1ccccc1N(C(=O)OC(C)(C)C)C(=O)CC2` were, in that order, 80 and “Not Active”.
